Test results published in PMC12541891 (MicrobiologyOpen, 2025).
Converted amounts (≈) assume the structure as drawn.

What was measured:
C. albicans biofilm [1] = assay: Biofilm biomass by crystal violet (CV) assay; format: cell-based, Candida albicans
Method: (§1) For all bacterial strains considered in the study, biofilm was performed on a 96‐well plate inoculated with 200 µL of a bacterial suspension 1 × 10^6 CFU/mL and incubated 24 h at 37°C. After incubation for 4 h at 37°C, the medium was aspirated, non‐adherent cells were removed, washed with PBS and added with 200 µL of fresh medium. […] Similarly, to perform fungal biofilm, the different Candida species were grown for 24 h at 28°C on a multi‐wells plate, washed twice with sterile PBS, and then resuspended at 37°C in RPMI 1640 plus 10% FBS at 2.5 × 10^7 cells. After incubation for 3 h at 37°C in six‐well polystyrene plates, the medium was aspirated, non‐adherent cells were removed and washed with PBS.
(§2) To quantify bacterial and Candida biofilm biomass, CV, a dye able to color the biofilm matrix, was used. Firstly, after the removal of supernatant and washing with PBS, biofilm was fixed adding 100 µL of 99% methanol for 15 min. Then, methanol was rinsed off and the plates were air‐dried. Subsequently, 100 µL of a 0.1% of CV solution were added to wells and, after 20 min of contact, the plates were washed under running tap water. To dissolve the bounded CV, 150 µL of 33% of glacial acetic acid were added to wells. The absorbance was measured at 590 nm using an automatic microplate reader, Tecan Sunrise (Tecan Group Ltd., Männedorf, Switzerland).

C. glabrata biofilm [2] = assay: Biofilm biomass by crystal violet (CV) assay; format: cell-based, Candida glabrata
Method: as §1, §2

C. krusei biofilm [3] = assay: Biofilm biomass by crystal violet (CV) assay; format: cell-based, Candida krusei
Method: as §1, §2

C. albicans biofilm [4] = assay: Biofilm metabolic activity by XTT-reduction assay; format: cell-based, Candida albicans
Method: as §1
(§3) The biofilm metabolic activity was evaluated by XTT assay, that highpoints the activity through the reduction of the tetrazolium salt to formazan. After the removal of supernatant and washing with PBS, a solution of XTT‐menadione solution were added to wells. The XTT‐menadione was prepared dissolving XTT powder in prewarmed PBS (37°C) at 0.5 g/L. The solution was sterilized through a 0.22 μm pore size filter. Before each assay, the XTT solution was thawed and supplemented with menadione, a 10 mM stock dissolved in acetone to a final concentration 1 μM. Plates were incubated for 3 h at 37°C in the dark and then the absorbance was measured at 492 nm using the microplate reader, Tecan Sunrise.

C. glabrata biofilm [5] = assay: Biofilm metabolic activity by XTT-reduction assay; format: cell-based, Candida glabrata
Method: as §1, §3

C. krusei biofilm [6] = assay: Biofilm metabolic activity by XTT-reduction assay; format: cell-based, Candida krusei
Method: as §1, §3

E. coli biofilm [7] = assay: Biofilm biomass by crystal violet (CV) assay; format: cell-based, Escherichia coli
Method: as §1, §2

ESBL-Ec biofilm [8] = assay: Biofilm biomass by crystal violet (CV) assay; format: cell-based, Escherichia coli
Method: as §1, §2

MRSA biofilm [9] = assay: Biofilm biomass by crystal violet (CV) assay; format: cell-based, Staphylococcus aureus
Method: as §1, §2

E. coli biofilm [10] = assay: Biofilm metabolic activity by XTT-reduction assay; format: cell-based, Escherichia coli
Method: as §1, §3

ESBL-Ec biofilm [11] = assay: Biofilm metabolic activity by XTT-reduction assay; format: cell-based, Escherichia coli
Method: as §1, §3

MRSA biofilm [12] = assay: Biofilm metabolic activity by XTT-reduction assay; format: cell-based, Staphylococcus aureus
Method: as §1, §3

S. aureus biofilm [13] = assay: Biofilm metabolic activity by XTT-reduction assay; format: cell-based, Staphylococcus aureus
Method: as §1, §3

[14] = tested on: Escherichia coli MG1655 (ATCC 700926); assay: MIC and MBC by microbroth dilution; format: cell-based
Method: (§4) No substance was added, in one well, for growth control. A bacterial suspension of 1 × 10^8 CFU/mL was inoculated into all wells of the plate and incubated for 24 h at 37°C. […] The dilutions ranged from 4 to 2000 µg/mL for the substances. The inoculum size was about 2.5×10^3 cells/mL. The plates were incubated at 28°C for 24–48 h. The MIC was determined as the lowest substances' concentration where no visible bacterial or fungal growth was observed. […] Each antimicrobial assay was performed in triplicate.

[15] = tested on: Extended Spectrum-Beta-Lactamase producing E. coli (ESBL-Ec); assay: MIC and MBC by microbroth dilution; format: cell-based; details: Escherichia coli, ESBL-Ec
Method: as §4

[16] = tested on: Staphylococcus aureus ATCC 6538; assay: MIC and MBC by microbroth dilution; format: cell-based
Method: as §4

[17] = tested on: methicillin resistant S. aureus (MRSA); assay: MIC and MBC by microbroth dilution; format: cell-based; details: Staphylococcus aureus
Method: as §4

C. albicans AIDS 68 = assay: MIC and MFC by microbroth dilution; format: cell-based; details: Candida albicans, AIDS68, C. albicans
Method: as §4

C. tropicalis 45,615 = assay: MIC and MFC by microbroth dilution; format: cell-based; details: Candida tropicalis, C. tropicalis
Method: as §4

C. glabrata DSY562 = assay: MIC and MFC by microbroth dilution; format: cell-based, Candida glabrata; details: Nakaseomyces glabratus, DSY562, C. glabrata
Method: as §4

C. krusei 44956 = assay: MIC and MFC by microbroth dilution; format: cell-based, Candida krusei; details: Pichia kudriavzevii, 44956, C. krusei
Method: as §4

S. aureus biofilm [18] = assay: Biofilm biomass by crystal violet (CV) assay; format: cell-based, Staphylococcus aureus
Method: as §1, §2

C. tropicalis biofilm [19] = assay: Biofilm biomass by crystal violet (CV) assay; format: cell-based, Candida tropicalis; details: substance alone at MIC
Method: as §1, §2

C. tropicalis biofilm [20] = assay: Biofilm metabolic activity by XTT-reduction assay; format: cell-based, Candida tropicalis; details: biofilm in formation (3 h), substance alone at MIC
Method: as §1, §3

[21] = biofilm in formation, sub-MIC concentrations alone or in combination (Table 5)
[22] = preformed biofilm, sub-MIC concentrations alone or in combination (Table 5)
[23] = planktonic, 24 h, read-out: MIC
[24] = planktonic, 24-48 h, read-out: MIC
[25] = biofilm in formation (4 h), substance alone at MIC
[26] = preformed biofilm (24 h), substance alone at MIC
[27] = biofilm in formation, sub-MIC concentrations alone or in combination (Table 5), listed as T
[28] = biofilm in formation (3 h), substance alone at MIC
[29] = biofilm in formation (3 h), substance alone at MIC, listed as thymol

Compound: OC(Cn1cncn1)(Cn1cncn1)c1ccc(F)cc1F [FLC, fluconazole, reference compound]
- Percentage of biomass reduction (C. albicans biofilm [1]; [21]): 30.6%
- Percentage of biomass reduction (C. glabrata biofilm [2]; [21]): 20.5%
- Percentage of biomass reduction (C. krusei biofilm [3]; [22]): 14%
- Percentage of metabolic activity reduction (C. albicans biofilm [4]; [21]): 25.1%
- Percentage of metabolic activity reduction (C. albicans biofilm [4]; [22]): 6.9%
- Percentage of metabolic activity reduction (C. glabrata biofilm [5]; [21]): 27.1%
- Percentage of metabolic activity reduction (C. glabrata biofilm [5]; [22]): 5.3%
- Percentage of metabolic activity reduction (C. krusei biofilm [6]; [22]): 14%

Compound: CNC(C)C1CCC(N)C(OC2C(N)CC(N)C(OC3OCC(C)(O)C(NC)C3O)C2O)O1 (stereo not shown) [GM, gentamicin, reference compound]
- Percentage of biomass reduction (E. coli biofilm [7]; [21]): 48%
- Percentage of biomass reduction (E. coli biofilm [7]; [22]): 59.8%
- Percentage of biomass reduction (ESBL-Ec biofilm [8]; [21]): 66.7%
- Percentage of biomass reduction (ESBL-Ec biofilm [8]; [22]): 48.9%
- Percentage of biomass reduction (MRSA biofilm [9]; [21]): 57.6%
- Percentage of biomass reduction (MRSA biofilm [9]; [22]): 33.6%
- Percentage of metabolic activity reduction (E. coli biofilm [10]; [21]): 35.9%
- Percentage of metabolic activity reduction (E. coli biofilm [10]; [22]): 48.3%
- Percentage of metabolic activity reduction (ESBL-Ec biofilm [11]; [21]): 50%
- Percentage of metabolic activity reduction (MRSA biofilm [12]; [21]): 22.3%
- Percentage of metabolic activity reduction (MRSA biofilm [12]; [22]): 16%
- Percentage of metabolic activity reduction (S. aureus biofilm [13]; [22]): 15.2%

Compound: Cc1ccc(C(C)C)c(O)c1 [Thymol, 2‐isopropyl‐5‐methylphenol]
- MIC ([14]; E. coli MG1655, planktonic, 24 h, read-out: MIC): 125 µg/mL (≈ 832 µM)
- MBC ([14]; E. coli MG1655, read-out: MBC): 250 µg/mL (≈ 1660 µM)
- MIC [15, 23]: 125 µg/mL (≈ 832 µM)
- MBC ([15]; read-out: MBC): 250 µg/mL (≈ 1660 µM)
- MIC ([16]; ATCC6538, S. aureus 6538, planktonic, 24 h, read-out: MIC): 250 µg/mL (≈ 1660 µM)
- MBC ([16]; ATCC6538, S. aureus 6538, read-out: MBC): 250 µg/mL (≈ 1660 µM)
- MIC [17, 23]: 250 µg/mL (≈ 1660 µM)
- MBC ([17]; read-out: MBC): 250 µg/mL (≈ 1660 µM)
- MIC (C. albicans AIDS 68; [24]): ≥ 2000 µg/mL
- MFC (C. albicans AIDS 68; read-out: MFC): ≥ 2000 µg/mL
- MIC (C. tropicalis 45,615; [24]): ≥ 2000 µg/mL
- MFC (C. tropicalis 45,615; read-out: MFC): ≥ 2000 µg/mL
- MIC (C. glabrata DSY562; [24]): ≥ 2000 µg/mL
- MFC (C. glabrata DSY562; read-out: MFC): ≥ 2000 µg/mL
- MIC (C. krusei 44956; [24]): ≥ 2000 µg/mL
- MFC (C. krusei 44956; read-out: MFC): ≥ 2000 µg/mL
- Percentage of biomass reduction (E. coli biofilm [7]; [25]): 87.7%
- Percentage of biomass reduction (E. coli biofilm [7]; [26]): 87%
- Percentage of biomass reduction (ESBL-Ec biofilm [8]; [25]): 70%
- Percentage of biomass reduction (ESBL-Ec biofilm [8]; [26]): 69.8%
- Percentage of biomass reduction (MRSA biofilm [9]; [25]): 90%
- Percentage of biomass reduction (MRSA biofilm [9]; [27]): 22.6%
- Percentage of biomass reduction (MRSA biofilm [9]; [26]): 87%
- Percentage of biomass reduction (MRSA biofilm [9]; [22]): 31.3%
- Percentage of biomass reduction (S. aureus biofilm [18]; [25]): 79.7%
- Percentage of biomass reduction (S. aureus biofilm [18]; [27]): 11.6%
- Percentage of biomass reduction (S. aureus biofilm [18]; [26]): 82.7%
- Percentage of biomass reduction (C. albicans biofilm [1]; [28]): 44.6%
- Percentage of biomass reduction (C. albicans biofilm [1]; [29]): about 40%
- Percentage of biomass reduction (C. albicans biofilm [1]; [21]): about 22%
- Percentage of biomass reduction (C. albicans biofilm [1]; [27]): 22.5%
- Percentage of biomass reduction (C. glabrata biofilm [2]; [28]): 52.1%
- Percentage of biomass reduction (C. glabrata biofilm [2]; [29]): about 40%
- Percentage of biomass reduction (C. glabrata biofilm [2]; [26]): 17.5%
- Percentage of biomass reduction (C. krusei biofilm [3]; [28]): no effect
- Percentage of biomass reduction (C. krusei biofilm [3]; [26]): 18.5%
- Percentage of biomass reduction (C. tropicalis biofilm [19]; biofilm in formation (3 h)): 37.1%
- Percentage of biomass reduction (C. tropicalis biofilm [19]; biofilm in formation (3 h), listed as thymol): about 40%
- Percentage of biomass reduction (C. tropicalis biofilm [19]; preformed biofilm (24 h)): 11.8%
- Percentage of metabolic activity reduction (E. coli biofilm [10]; [25]): 84.8%
- Percentage of metabolic activity reduction (E. coli biofilm [10]; [21]): ~50%
- Percentage of metabolic activity reduction (E. coli biofilm [10]; [27]): 51.3%
- Percentage of metabolic activity reduction (E. coli biofilm [10]; [26]): 74%
- Percentage of metabolic activity reduction (E. coli biofilm [10]; [22]): 22.4%
- Percentage of metabolic activity reduction (ESBL-Ec biofilm [11]; [25]): 77.9%
- Percentage of metabolic activity reduction (ESBL-Ec biofilm [11]; [21]): ~50%
- Percentage of metabolic activity reduction (ESBL-Ec biofilm [11]; [27]): 52%
- Percentage of metabolic activity reduction (ESBL-Ec biofilm [11]; [26]): 74%
- Percentage of metabolic activity reduction (MRSA biofilm [12]; [25]): 96.3%
- Percentage of metabolic activity reduction (MRSA biofilm [12]; [26]): 97.5%
- Percentage of metabolic activity reduction (MRSA biofilm [12]; [22]): 17.2%
- Percentage of metabolic activity reduction (S. aureus biofilm [13]; [25]): 90%
- Percentage of metabolic activity reduction (S. aureus biofilm [13]; [27]): 12%
- Percentage of metabolic activity reduction (S. aureus biofilm [13]; [26]): 90%
- Percentage of metabolic activity reduction (C. albicans biofilm [4]; [28]): 85.1%
- Percentage of metabolic activity reduction (C. albicans biofilm [4]; [21]): about 22%
- Percentage of metabolic activity reduction (C. albicans biofilm [4]; [27]): 24.0%
- Percentage of metabolic activity reduction (C. albicans biofilm [4]; [26]): 84.1%
- Percentage of metabolic activity reduction (C. albicans biofilm [4]; preformed biofilm (24 h), substance alone at MIC, listed as thymol): 80%
- Percentage of metabolic activity reduction (C. albicans biofilm [4]; [22]): 9.0%
- Percentage of metabolic activity reduction (C. glabrata biofilm [5]; [28]): 90%
- Percentage of metabolic activity reduction (C. glabrata biofilm [5]; [26]): 9.6%
- Percentage of metabolic activity reduction (C. glabrata biofilm [5]; [22]): 11.4%
- Percentage of metabolic activity reduction (C. krusei biofilm [6]; [28]): 71.7%
- Percentage of metabolic activity reduction (C. krusei biofilm [6]; [21]): 25%
- Percentage of metabolic activity reduction (C. krusei biofilm [6]; [26]): 47%
- Percentage of metabolic activity reduction (C. krusei biofilm [6]; [22]): 25.1%
- Percentage of metabolic activity reduction (C. tropicalis biofilm [20]): 53.9%
